Drawing on patent US11952374B2, “Bicyclic compounds” (Aligos Therapeutics, Inc., priority 2020, dated 2024), this text covers CC50 and EC50 for four compounds.

Structures are written as SMILES. Like-named read-outs stand apart in the source and are kept apart here.

Data set [1] concerns HepG2.117 cells. Nature of the data set: Cell viability by CellTiter-Glo 2.0 (intracellular ATP) in HepG2.117 cells. It is filed as cell-based. The settings on record: CellTiter-Glo 2.0, 3 days incubation. The method, then: (§1) The following assay procedure describes the HBV antiviral assay, using HepG2.117 cells, which carry a stably integrated genotype D HBV genome under the control of a Tet-off promoter, and intracellular HBV DNA quantification as endpoint. Cell viability is assessed in parallel by measuring the intracellular ATP content using CellTiter-Glo 2.0 (Promega).
(§2) On day 1, medium is removed from each well, the test articles are diluted in culture medium without doxcycyline and 100 μL was added to cell culture wells (9 concentrations, 4-fold dilution). For each plate, 6 untreated (merely DMSO) wells are included. The final concentration of DMSO in the culture medium is 2%. Each plate is prepared in duplicate (one for HBV DNA extraction, one for CellTiter-Glo 2.0 measurement). The cells are incubated at 37° C. and 5% CO2 for 3 days.
(§3) On day 4, cell viability is assessed using CellTiter-Glo 2.0 and cell lysates are prepared for HBV DNA extraction and subsequent quantification by qPCR.
(§4) Using the other plates, the cell viability is quantified by CellTiter-Glo 2.0 according to the manufacturer's manual. In brief, 100 μL of reagent solution is added to the culture plates and shaken for 2′. The plates are incubated at room temperature for 10 min and luminescence signal is subsequently measured on a VarioSkan Lux (ThermoFisher) plate reader.
(§5) Cell viability is calculated as follows: % Cell viability=(luminescence value of test sample)/(average luminescence value of 2% DMSO control)×100%. HBV DNA inhibition was calculated as follows: 100−(HBV DNA copy number of test sample)/(average HBV DNA copy number of 2% DMSO control)×100%. No normalization to entecavir is required due to the excellent dynamic window of this assay. The CC50, EC50 and EC90 values were determined by dose-response curves fitted using non-linear regression.

Data set [2] relates to HBV. Put plainly: HBV-DNA antiviral assay using HepG2.117 cells (intracellular HBV DNA by qPCR). In kind it is cell-based, HBV genotype D. The settings on record: HBV DNA inhibition, HepG2.117 cells, 3 days incubation, read-out: EC50. On the procedure:
as §1
On day 0, HepG2.117 cells (which are maintained in routine cell culture with doxycycline present in the medium at a final concentration of 1 μg/mL) are seeded in 96-well plates (white with clear bottom) at a density of 2.0×10^4 cells/well (0.1 mL/well) in medium without doxycycline to induce pgRNA transcription and subsequent formation of HBV particles. The cells are incubated at 37° C. and 5% CO2.
as §2, §3
Medium is removed from each well and 100 μL of 0.33% NP-40 in H2O was added to each well. Plates are sealed, incubated at 4° C. for 5 mins, vortexed extensively and centrifuged briefly. Next, 35 μL of lysate is added to 65 μL QuickExtract DNA Extraction Solution (Epicentre) in a PCR plate for each well. PCR plate is incubated at 65° C. for 6 mins, 98° C. for 2 mins and finally cooled to 4° C. HBV DNA is then quantified by qPCR with HBV-specific primers and probes as specified in Table 2 using the Bio-Rad SSOAdvanced Universal Probes Supermix on a CFX96 machine (Bio-Rad). The PCR cycle program consisted of 95° C. for 3 mins, followed by 40 cycles at 95° C. for 10 sec and 60° C. for 30 sec.
A DNA standard is prepared by dilution of an IDT gBlock corresponding to the amplicon with concentrations ranging from 10^A2 to 10^A8 copies/input (i.e. per 4 μL) and used to generate a standard curve by plotting Cq values vs. HBV DNA standard concentration. The quantity of HBV DNA in each sample is determined by interpolating from the standard curve.
as §5

Data set [3] is described as follows: Cell viability by CellTiter-Glo 2.0 (intracellular ATP) in HepG2.117 cells. The conditions noted are these: human, CellTiter-Glo 2.0, 3 days incubation. It is filed as cell-based. The method, then:
as §1, §2, §3, §4, §5

Take `CNC(=O)c1ccc(-n2c([C@@H]3CCCN3C(C)C)nc3c(c2=O)CC(C)N(C(=O)c2ccc(Br)c(C(F)(F)F)c2)C3)cc1` (single isomer, unassigned) [Compound 11b]: in data set [1], the CC50 was > 50 µM. Further, the EC50 in data set [2] lay in the range of 0.5 to 5 µM.

As to `CNC(=O)c1ccc(-n2c(NCc3ccccc3-c3ccccn3)nc3c(c2=O)C[C@@H](C)N(C(=O)c2ccc(Br)c(C(F)(F)F)c2)C3)c(Cl)c1` (single isomer, unassigned) [Compound 1b], the CC50 in data set [1] is > 50 µM. In addition, the EC50 in data set [2] is < 0.05 µM.

In data set [3], `CNC(=O)c1ccc(-n2c(C3CCN(C(=O)OC(C)(C)C)C3)nc3c(c2=O)CC(C)N(C(=O)c2ccc(Br)c(C(F)(F)F)c2)C3)cc1` (centres unmarked) [Compound 17, t-butyl 3-(7-(4-bromo-3-(trifluoromethyl)benzoyl)-6-methyl-3-(4-(methylcarbamoyl)phenyl)-4-oxo-3,4,5,6,7,8-hexahydropyrido[3,4-d]pyrimidin-2-yl)pyrrolidine-1-carboxylate] had a CC50 at 3 days of 24.2 µM. In data set [2] (Hepatitis B virus, 72 h), the EC50 fell in the range of 0.05 to 0.5 µM.

For the compound `CNC(=O)c1ccc(-n2c(-n3ccc(CC(C)C)n3)nc3c(c2=O)C[C@@H](C)N(C(=O)c2ccc(Br)c(C(F)(F)F)c2)C3)cc1` [Compound 14], the CC50 at 3 days in data set [3] was > 50 µM. The EC50 in data set [2] (Hepatitis B virus, 72 h) was < 0.05 µM.
